Source: the supplement of paper PMC12463676, “Small-molecule dissolution of stress granules by redox modulation benefits ALS models” (Nature Chemical Biology, 2025)

Compound: NC(=O)CCCCC1CCSS1 [lipoamide]
Assay: thermal stability z-score vs DMSO; higher = more thermally stabilized by treatment
Conditions: HeLa; lipoamide concentration 100 µM; arsenate co-treatment: 1 mM arsenate 1 h
Method: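 Cellular thermal proteome profiling in HeLa cells. Cells were treated with 100 µM lipoamide for 1 h, with or without 1 mM arsenate for a further 1 h, then heated to ten temperatures (37-66.3 °C), and soluble protein was quantified by TMT mass spectrometry relative to 0.1% DMSO controls. The thermal stability score (sum of log2 fold changes minus the abundance score) was transformed to a z-score; mean of n = 3 experiments.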
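Also: each temperature applied for 3 min, abundance score taken as mean log2 fold change at the two lowest temperatures, z-score obtained by mean subtraction and division by SD.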

UniProt Q15834, sequence (Q15834 whole entry): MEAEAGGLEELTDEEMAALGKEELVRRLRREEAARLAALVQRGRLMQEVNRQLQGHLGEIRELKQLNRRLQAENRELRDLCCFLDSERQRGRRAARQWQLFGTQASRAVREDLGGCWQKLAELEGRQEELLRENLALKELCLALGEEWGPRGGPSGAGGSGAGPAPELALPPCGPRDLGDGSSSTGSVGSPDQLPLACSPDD
UniProt P60520, sequence (P60520 whole entry): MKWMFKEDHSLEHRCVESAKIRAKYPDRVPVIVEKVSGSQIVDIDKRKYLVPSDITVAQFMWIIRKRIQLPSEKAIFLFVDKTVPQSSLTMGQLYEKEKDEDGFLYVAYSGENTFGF
UniProt O60870, sequence (O60870 whole entry): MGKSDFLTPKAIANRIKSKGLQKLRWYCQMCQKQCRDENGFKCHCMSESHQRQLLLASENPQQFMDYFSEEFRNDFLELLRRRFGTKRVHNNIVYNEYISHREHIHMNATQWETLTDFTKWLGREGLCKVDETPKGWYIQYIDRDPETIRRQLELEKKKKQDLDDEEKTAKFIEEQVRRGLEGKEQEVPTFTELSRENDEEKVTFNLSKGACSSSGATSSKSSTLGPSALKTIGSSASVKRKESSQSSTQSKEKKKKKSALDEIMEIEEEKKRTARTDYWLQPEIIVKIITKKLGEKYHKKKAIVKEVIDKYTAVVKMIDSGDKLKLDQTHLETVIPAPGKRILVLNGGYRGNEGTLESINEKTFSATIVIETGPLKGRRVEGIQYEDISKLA
UniProt Q32P28, sequence (Q32P28 whole entry): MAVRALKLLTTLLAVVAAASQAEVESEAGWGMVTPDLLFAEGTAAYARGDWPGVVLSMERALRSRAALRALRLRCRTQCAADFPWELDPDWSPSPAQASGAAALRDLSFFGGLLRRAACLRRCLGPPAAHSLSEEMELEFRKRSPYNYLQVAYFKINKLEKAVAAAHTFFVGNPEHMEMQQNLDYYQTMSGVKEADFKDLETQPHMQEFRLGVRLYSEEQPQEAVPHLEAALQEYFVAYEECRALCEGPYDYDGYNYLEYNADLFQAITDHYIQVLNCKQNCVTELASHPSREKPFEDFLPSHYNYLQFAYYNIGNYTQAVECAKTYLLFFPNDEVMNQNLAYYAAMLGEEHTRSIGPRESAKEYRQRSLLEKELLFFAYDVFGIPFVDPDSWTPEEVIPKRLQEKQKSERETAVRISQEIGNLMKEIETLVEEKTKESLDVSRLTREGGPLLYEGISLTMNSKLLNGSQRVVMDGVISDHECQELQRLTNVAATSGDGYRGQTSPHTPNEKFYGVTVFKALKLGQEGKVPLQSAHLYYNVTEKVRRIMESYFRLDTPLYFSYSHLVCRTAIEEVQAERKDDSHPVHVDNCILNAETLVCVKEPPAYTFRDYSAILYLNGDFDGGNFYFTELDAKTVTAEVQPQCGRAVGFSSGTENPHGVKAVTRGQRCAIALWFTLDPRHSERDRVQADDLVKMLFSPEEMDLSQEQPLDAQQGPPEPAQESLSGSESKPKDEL
UniProt Q96GY0, sequence (Q96GY0 whole entry): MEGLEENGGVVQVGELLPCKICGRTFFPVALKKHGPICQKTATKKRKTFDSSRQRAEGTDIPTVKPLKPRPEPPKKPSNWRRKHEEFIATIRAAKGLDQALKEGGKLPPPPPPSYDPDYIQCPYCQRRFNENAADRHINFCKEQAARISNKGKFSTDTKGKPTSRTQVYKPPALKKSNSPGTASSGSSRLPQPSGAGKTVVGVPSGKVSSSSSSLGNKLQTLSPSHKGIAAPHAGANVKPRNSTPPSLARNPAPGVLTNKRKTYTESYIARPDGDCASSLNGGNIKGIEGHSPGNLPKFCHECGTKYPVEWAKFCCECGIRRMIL
UniProt Q9H0R8, sequence (Q9H0R8 whole entry, looked up): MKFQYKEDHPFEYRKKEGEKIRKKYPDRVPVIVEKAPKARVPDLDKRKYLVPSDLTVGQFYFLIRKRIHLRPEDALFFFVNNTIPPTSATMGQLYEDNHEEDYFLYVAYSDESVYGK
UniProt Q4ZIN3, sequence (Q4ZIN3 whole entry): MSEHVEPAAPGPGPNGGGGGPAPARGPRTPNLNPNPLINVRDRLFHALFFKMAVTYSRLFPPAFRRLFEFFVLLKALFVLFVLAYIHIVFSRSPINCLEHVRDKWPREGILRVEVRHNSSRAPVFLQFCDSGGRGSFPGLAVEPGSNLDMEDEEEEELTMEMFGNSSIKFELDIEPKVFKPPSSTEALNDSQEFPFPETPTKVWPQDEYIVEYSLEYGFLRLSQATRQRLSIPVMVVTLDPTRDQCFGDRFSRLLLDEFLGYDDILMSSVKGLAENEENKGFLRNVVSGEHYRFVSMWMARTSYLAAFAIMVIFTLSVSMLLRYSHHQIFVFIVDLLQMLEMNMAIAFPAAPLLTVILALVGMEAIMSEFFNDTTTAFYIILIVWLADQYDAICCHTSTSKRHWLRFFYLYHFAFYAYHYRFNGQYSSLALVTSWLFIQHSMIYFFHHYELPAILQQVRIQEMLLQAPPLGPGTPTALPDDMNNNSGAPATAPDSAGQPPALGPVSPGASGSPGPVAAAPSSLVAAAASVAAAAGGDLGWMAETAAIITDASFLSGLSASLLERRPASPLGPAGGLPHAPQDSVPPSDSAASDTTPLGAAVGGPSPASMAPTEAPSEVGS
UniProt Q13416, sequence (Q13416 whole entry): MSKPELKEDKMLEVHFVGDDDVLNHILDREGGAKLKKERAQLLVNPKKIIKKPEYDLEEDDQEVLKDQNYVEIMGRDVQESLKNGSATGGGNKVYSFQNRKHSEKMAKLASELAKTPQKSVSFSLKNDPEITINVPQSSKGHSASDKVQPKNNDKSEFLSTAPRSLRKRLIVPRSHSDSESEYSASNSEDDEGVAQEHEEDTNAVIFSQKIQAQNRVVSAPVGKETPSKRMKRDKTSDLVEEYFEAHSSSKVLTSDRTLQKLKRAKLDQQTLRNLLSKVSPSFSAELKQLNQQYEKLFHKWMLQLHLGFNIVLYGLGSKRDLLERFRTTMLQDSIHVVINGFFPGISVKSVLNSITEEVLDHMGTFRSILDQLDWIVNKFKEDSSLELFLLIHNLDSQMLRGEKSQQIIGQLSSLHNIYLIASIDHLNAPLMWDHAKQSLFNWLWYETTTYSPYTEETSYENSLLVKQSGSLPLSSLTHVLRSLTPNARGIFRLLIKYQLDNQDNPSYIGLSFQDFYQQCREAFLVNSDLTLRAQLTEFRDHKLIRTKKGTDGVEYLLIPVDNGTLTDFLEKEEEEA
UniProt Q14493, sequence (Q14493 whole entry, looked up): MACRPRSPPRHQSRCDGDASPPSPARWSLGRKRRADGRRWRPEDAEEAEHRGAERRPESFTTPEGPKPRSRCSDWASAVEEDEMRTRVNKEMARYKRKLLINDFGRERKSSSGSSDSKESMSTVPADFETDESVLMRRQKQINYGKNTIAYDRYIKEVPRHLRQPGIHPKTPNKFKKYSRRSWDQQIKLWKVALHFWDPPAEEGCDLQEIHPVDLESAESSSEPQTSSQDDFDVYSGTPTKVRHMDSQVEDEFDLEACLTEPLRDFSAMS
UniProt Q8WVK2, sequence (Q8WVK2 whole entry): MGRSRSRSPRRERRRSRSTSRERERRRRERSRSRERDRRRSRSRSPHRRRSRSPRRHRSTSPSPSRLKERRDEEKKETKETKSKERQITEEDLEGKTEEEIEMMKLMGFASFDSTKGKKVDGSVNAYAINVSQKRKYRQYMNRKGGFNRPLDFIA
UniProt Q07889, sequence (Q07889 whole entry): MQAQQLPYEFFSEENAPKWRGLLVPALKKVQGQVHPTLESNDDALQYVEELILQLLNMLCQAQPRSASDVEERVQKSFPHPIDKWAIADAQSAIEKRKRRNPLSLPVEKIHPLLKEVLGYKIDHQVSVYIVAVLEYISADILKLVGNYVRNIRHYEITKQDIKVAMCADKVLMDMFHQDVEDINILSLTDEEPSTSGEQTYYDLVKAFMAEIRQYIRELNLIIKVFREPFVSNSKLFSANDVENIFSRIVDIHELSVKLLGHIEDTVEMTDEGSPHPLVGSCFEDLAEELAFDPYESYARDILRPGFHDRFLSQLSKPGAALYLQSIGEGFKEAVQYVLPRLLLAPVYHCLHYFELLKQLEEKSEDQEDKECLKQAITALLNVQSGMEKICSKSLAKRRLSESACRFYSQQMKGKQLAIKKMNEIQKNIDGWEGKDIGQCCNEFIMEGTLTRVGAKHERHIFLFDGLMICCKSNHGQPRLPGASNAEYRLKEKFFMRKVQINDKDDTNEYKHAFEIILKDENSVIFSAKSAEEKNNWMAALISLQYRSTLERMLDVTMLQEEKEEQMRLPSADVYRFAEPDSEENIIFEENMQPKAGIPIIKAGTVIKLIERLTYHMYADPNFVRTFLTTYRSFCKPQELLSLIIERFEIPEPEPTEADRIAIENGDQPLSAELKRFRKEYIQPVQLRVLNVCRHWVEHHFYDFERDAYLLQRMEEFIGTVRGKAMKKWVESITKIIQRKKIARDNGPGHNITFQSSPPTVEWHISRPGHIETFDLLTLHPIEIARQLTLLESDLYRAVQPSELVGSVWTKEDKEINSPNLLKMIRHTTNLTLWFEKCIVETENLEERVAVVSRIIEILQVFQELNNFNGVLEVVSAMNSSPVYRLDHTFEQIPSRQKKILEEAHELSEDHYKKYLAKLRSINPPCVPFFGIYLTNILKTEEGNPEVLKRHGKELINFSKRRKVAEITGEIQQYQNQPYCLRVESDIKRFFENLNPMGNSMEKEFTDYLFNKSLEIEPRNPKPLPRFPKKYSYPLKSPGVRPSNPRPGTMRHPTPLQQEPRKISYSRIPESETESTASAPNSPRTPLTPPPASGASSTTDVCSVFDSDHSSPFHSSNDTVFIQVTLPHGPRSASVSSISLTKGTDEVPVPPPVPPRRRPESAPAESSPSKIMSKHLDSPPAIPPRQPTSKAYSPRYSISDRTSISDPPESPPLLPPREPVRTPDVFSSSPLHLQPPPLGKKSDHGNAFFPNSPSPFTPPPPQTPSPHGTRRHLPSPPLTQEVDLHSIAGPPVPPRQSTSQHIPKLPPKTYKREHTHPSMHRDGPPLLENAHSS
UniProt Q9UDW1, sequence (Q9UDW1 whole entry): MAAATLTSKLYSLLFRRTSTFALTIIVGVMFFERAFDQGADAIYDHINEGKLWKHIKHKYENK

Target	thermal stability z-score
LIPA (UniProt P38571)	-0.674
PTER (UniProt Q96BW5)	-0.116
ASAH1 (UniProt Q13510)	-0.162
ZC2HC1A (UniProt Q96GY0)	0.178
MYDGF (UniProt Q969H8)	-1.32
ARHGEF11 (UniProt O15085)	-0.0428
EDEM3 (UniProt Q9BZQ6)	-3.5
TTC33 (UniProt Q6PID6)	0.242
SLBP (UniProt Q14493)	-0.736
SF3A3 (UniProt Q12874)	0.351
WIPF2 (UniProt Q8TF74)	0.726
LPP (UniProt Q93052)	-0.407
PRC1 (UniProt O43663)	-0.144
UQCR10 (UniProt Q9UDW1)	-0.399
FZD6 (UniProt O60353)	-1.56
KIF22 (UniProt Q14807)	-0.451
HSPA4 (UniProt P34932)	0.102
GABARAPL1 (UniProt Q9H0R8)	-1.22
SIAE (UniProt Q9HAT2)	0.527
PARVA (UniProt Q9NVD7)	0.468
P1394_HsINTS1|INTS1	-0.0499
ARHGEF12 (UniProt Q9NZN5)	-0.125
BOLA3 (UniProt Q53S33)	-0.103
PHYH (UniProt O14832)	0.0197

Target	thermal stability z-score
C11ORF31|SELH	0.115
CYLD (UniProt Q9NQC7)	-0.238
DPYSL2 (UniProt Q16555)	0.645
MISP (UniProt Q8IVT2)	0.196
DDX56 (UniProt Q9NY93)	-0.847
GLOD4 (UniProt Q9HC38)	2.19
ARPC1A (UniProt Q92747)	-0.106
GMNN (UniProt O75496)	0.365
GABARAPL2 (UniProt P60520)	0.14
OPA1 (UniProt O60313)	-0.697
PCBP2 (UniProt Q15366)	-0.426
CTBP1 (UniProt Q13363)	1.13
RABL2A|RABL2B	0.0788
P3H1 (UniProt Q32P28)	-4.35
COPB1 (UniProt P53618)	0.189
USP15 (UniProt Q9Y4E8)	0.00184
SNRNP27 (UniProt Q8WVK2)	0.418
CWC27 (UniProt Q6UX04)	0.0242
CSRP2 (UniProt Q16527)	0.688
DBT (UniProt P11182)	-0.65
UNG (UniProt P13051)	-0.772
HCCS (UniProt P53701)	-0.0583
ZFPL1 (UniProt O95159)	-0.552
EIF2AK3 (UniProt Q9NZJ5)	-0.372

Target	thermal stability z-score
TOE1 (UniProt Q96GM8)	0.165
RPS28 (UniProt P62857)	0.574
VPS51 (UniProt Q9UID3)	-0.0785
CCDC85B (UniProt Q15834)	0.574
TMEM259 (UniProt Q4ZIN3)	-0.193
NDUFAB1 (UniProt O14561)	1.77
GTSE1 (UniProt Q9NYZ3)	-0.0607
ANKRD50 (UniProt Q9ULJ7)	-0.124
ASS1 (UniProt P00966)	-0.416
ZNF207 (UniProt O43670)	0.132
NDUFB9 (UniProt Q9Y6M9)	0.158
MSH3 (UniProt P20585)	-0.0133
FLYWCH2 (UniProt Q96CP2)	0.101
CLPTM1 (UniProt O96005)	-3.11
SOS1 (UniProt Q07889)	0.324
RPL8 (UniProt P62917)	0.0892
C1GALT1C1 (UniProt Q96EU7)	-0.776
SLC38A7 (UniProt Q9NVC3)	-0.543
MEF2D (UniProt Q14814)	0.00357
ASCC3 (UniProt Q8N3C0)	-0.289
KIN (UniProt O60870)	-0.0116
ARF5 (UniProt P84085)	-0.258
ORC2 (UniProt Q13416)	0.0753

Same assay, conditions: HeLa; lipoamide concentration 100 µM; arsenate co-treatment: none

Target	thermal stability z-score
LIPA (UniProt P38571)	-0.352
PTER (UniProt Q96BW5)	-0.966
ASAH1 (UniProt Q13510)	-0.738
ZC2HC1A (UniProt Q96GY0)	-0.306
MYDGF (UniProt Q969H8)	-1.06
ARHGEF11 (UniProt O15085)	0.152
EDEM3 (UniProt Q9BZQ6)	-2.77
TTC33 (UniProt Q6PID6)	0.0666
SLBP (UniProt Q14493)	0.179
SF3A3 (UniProt Q12874)	0.639
WIPF2 (UniProt Q8TF74)	0.703
LPP (UniProt Q93052)	-0.444
PRC1 (UniProt O43663)	-0.106
UQCR10 (UniProt Q9UDW1)	0.0606
FZD6 (UniProt O60353)	-1.7
KIF22 (UniProt Q14807)	0.147
HSPA4 (UniProt P34932)	0.475
GABARAPL1 (UniProt Q9H0R8)	-2.02
SIAE (UniProt Q9HAT2)	0.537
PARVA (UniProt Q9NVD7)	0.672
P1394_HsINTS1|INTS1	-0.0292
ARHGEF12 (UniProt Q9NZN5)	-0.261
BOLA3 (UniProt Q53S33)	-0.245
PHYH (UniProt O14832)	-0.12

Target	thermal stability z-score
C11ORF31|SELH	0.162
CYLD (UniProt Q9NQC7)	0.0192
DPYSL2 (UniProt Q16555)	0.115
MISP (UniProt Q8IVT2)	0.386
DDX56 (UniProt Q9NY93)	-0.217
GLOD4 (UniProt Q9HC38)	2.33
ARPC1A (UniProt Q92747)	0.0846
GMNN (UniProt O75496)	0.809
GABARAPL2 (UniProt P60520)	-0.266
OPA1 (UniProt O60313)	-0.456
PCBP2 (UniProt Q15366)	-0.239
CTBP1 (UniProt Q13363)	-0.19
RABL2A|RABL2B	-0.011
P3H1 (UniProt Q32P28)	-3.23
COPB1 (UniProt P53618)	0.0616
USP15 (UniProt Q9Y4E8)	-0.0791
SNRNP27 (UniProt Q8WVK2)	-0.21
CWC27 (UniProt Q6UX04)	-0.348
CSRP2 (UniProt Q16527)	0.0492
DBT (UniProt P11182)	-0.0292
UNG (UniProt P13051)	-1.08
HCCS (UniProt P53701)	-0.124
ZFPL1 (UniProt O95159)	-1.06
EIF2AK3 (UniProt Q9NZJ5)	-0.109

Target	thermal stability z-score
TOE1 (UniProt Q96GM8)	0.146
RPS28 (UniProt P62857)	0.243
VPS51 (UniProt Q9UID3)	0.169
CCDC85B (UniProt Q15834)	0.223
TMEM259 (UniProt Q4ZIN3)	-0.832
NDUFAB1 (UniProt O14561)	-0.297
GTSE1 (UniProt Q9NYZ3)	0.0853
ANKRD50 (UniProt Q9ULJ7)	0.078
ASS1 (UniProt P00966)	0.107
ZNF207 (UniProt O43670)	-0.22
NDUFB9 (UniProt Q9Y6M9)	-0.175
MSH3 (UniProt P20585)	0.43
FLYWCH2 (UniProt Q96CP2)	0.222
CLPTM1 (UniProt O96005)	-2.81
SOS1 (UniProt Q07889)	0.304
RPL8 (UniProt P62917)	-0.22
C1GALT1C1 (UniProt Q96EU7)	-0.734
SLC38A7 (UniProt Q9NVC3)	-0.964
MEF2D (UniProt Q14814)	0.197
ASCC3 (UniProt Q8N3C0)	-0.167
KIN (UniProt O60870)	0.0339
ARF5 (UniProt P84085)	-0.517
ORC2 (UniProt Q13416)	0.0589

Compound: O=[As]([O-])(O)O.[K+] [potassium arsenate]
Assay: as above
Conditions: HeLa; arsenate concentration 1 mM
Method: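 Cellular thermal proteome profiling in HeLa cells treated with 1 mM arsenate for 1 h (DMSO pretreatment), heated to ten temperatures (37-66.3 °C). Soluble protein was quantified by TMT mass spectrometry relative to DMSO controls; the thermal stability score was transformed to a z-score; mean of n = 3 experiments.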

Target	thermal stability z-score
LIPA (UniProt P38571)	0.119
PTER (UniProt Q96BW5)	-0.311
ASAH1 (UniProt Q13510)	0.065
ZC2HC1A (UniProt Q96GY0)	-1.15
MYDGF (UniProt Q969H8)	-0.0349
ARHGEF11 (UniProt O15085)	0.14
EDEM3 (UniProt Q9BZQ6)	0.485
TTC33 (UniProt Q6PID6)	-0.664
SLBP (UniProt Q14493)	-1.06
SF3A3 (UniProt Q12874)	-0.503
WIPF2 (UniProt Q8TF74)	0.0475
LPP (UniProt Q93052)	-5.37
PRC1 (UniProt O43663)	-0.601
UQCR10 (UniProt Q9UDW1)	0.553
FZD6 (UniProt O60353)	0.376
KIF22 (UniProt Q14807)	-0.386
HSPA4 (UniProt P34932)	-0.388
GABARAPL1 (UniProt Q9H0R8)	-0.849
SIAE (UniProt Q9HAT2)	0.741
PARVA (UniProt Q9NVD7)	1.14
P1394_HsINTS1|INTS1	0.145
ARHGEF12 (UniProt Q9NZN5)	0.192
BOLA3 (UniProt Q53S33)	0.0193
PHYH (UniProt O14832)	-0.196

Target	thermal stability z-score
C11ORF31|SELH	-0.153
CYLD (UniProt Q9NQC7)	0.144
DPYSL2 (UniProt Q16555)	-0.691
MISP (UniProt Q8IVT2)	-0.461
DDX56 (UniProt Q9NY93)	0.917
GLOD4 (UniProt Q9HC38)	0.311
ARPC1A (UniProt Q92747)	-0.466
GMNN (UniProt O75496)	0.576
GABARAPL2 (UniProt P60520)	0.209
OPA1 (UniProt O60313)	0.749
PCBP2 (UniProt Q15366)	0.141
CTBP1 (UniProt Q13363)	0.629
RABL2A|RABL2B	-0.151
P3H1 (UniProt Q32P28)	1.2
COPB1 (UniProt P53618)	0.367
USP15 (UniProt Q9Y4E8)	0.014
SNRNP27 (UniProt Q8WVK2)	0.444
CWC27 (UniProt Q6UX04)	-0.344
CSRP2 (UniProt Q16527)	-0.0511
DBT (UniProt P11182)	-1.75
UNG (UniProt P13051)	-0.665
HCCS (UniProt P53701)	-0.0765
ZFPL1 (UniProt O95159)	-1.02
EIF2AK3 (UniProt Q9NZJ5)	-0.317

Target	thermal stability z-score
TOE1 (UniProt Q96GM8)	-2.54
RPS28 (UniProt P62857)	-0.0195
VPS51 (UniProt Q9UID3)	-0.285
CCDC85B (UniProt Q15834)	0.125
TMEM259 (UniProt Q4ZIN3)	0.701
NDUFAB1 (UniProt O14561)	0.86
GTSE1 (UniProt Q9NYZ3)	-0.213
ANKRD50 (UniProt Q9ULJ7)	0.0328
ASS1 (UniProt P00966)	-1.34
ZNF207 (UniProt O43670)	0.167
NDUFB9 (UniProt Q9Y6M9)	-0.937
MSH3 (UniProt P20585)	-0.95
FLYWCH2 (UniProt Q96CP2)	0.0187
CLPTM1 (UniProt O96005)	0.0364
SOS1 (UniProt Q07889)	0.167
RPL8 (UniProt P62917)	-1.07
C1GALT1C1 (UniProt Q96EU7)	0.1
SLC38A7 (UniProt Q9NVC3)	-0.442
MEF2D (UniProt Q14814)	0.288
ASCC3 (UniProt Q8N3C0)	-0.277
KIN (UniProt O60870)	-0.174
ARF5 (UniProt P84085)	-0.187
ORC2 (UniProt Q13416)	0.0824
